Values after ≈ are worked out from the molar mass of the structure shown. Where a SMILES comes first, the peptide text is derived from it. Bridges are numbered along the chain shown (N, C = ends). Roman numbers before positions name the chains, in order. Side-chain parts run from the residue outwards. The star is where a group is joined. X3 = CC(=O)N[C@@H](CC(C)C)C(=O)NCCCC[C@H](NC(=O)[C@H](CC(C)C)NC(C)=O)C(=O)*; LeuLys(Leu) = CC(C)C[C@H](N)C(=O)NCCCC[C@H](NC(=O)[C@@H](N)CC(C)C)C(=O)*
Experiments:
Pseudomonas aeruginosa [1] = assay: Antibacterial activity against Pseudomonas aeruginosa PAO1 after 18 to 24 hrs by broth microdilution assay; type: functional
[2] = Hemolytic activity in human RBC after 4 hrs; type: ADME, cell-based; settings: erythrocyte
Bacillus subtilis = assay: Antibacterial activity against Bacillus subtilis BR151 after 18 to 24 hrs by broth microdilution assay; type: functional
Escherichia coli [3] = assay: Antibacterial activity against Escherichia coli DH5[alpha] after 18 to 24 hrs by broth microdilution assay; type: functional
Staphylococcus aureus [4] = assay: Antibacterial activity against methicillin-resistant Staphylococcus aureus 42080 by broth microdilution assay; type: functional
Enterococcus faecalis [5] = assay: Antibacterial activity against Enterococcus faecalis ATCC 29212 by broth microdilution assay; type: functional
Pseudomonas aeruginosa [6] = assay: Antibacterial activity against Pseudomonas aeruginosa ATCC 27853 by broth microdilution assay; type: functional
Staphylococcus aureus [7] = assay: Antibacterial activity against Staphylococcus aureus ATCC 29213 by broth microdilution assay; type: functional
Enterococcus faecalis [8] = assay: Antibacterial activity against Enterococcus faecalis Van BE80-8 by broth microdilution assay; type: functional
Pseudomonas aeruginosa [9] = assay: Antibacterial activity against Pseudomonas aeruginosa PAO1 HS by broth microdilution assay; type: functional
Pseudomonas aeruginosa [10] = assay: Antibacterial activity against Pseudomonas aeruginosa K799/61 by broth microdilution assay; type: functional
Pseudomonas aeruginosa [11] = assay: Antibacterial activity against Pseudomonas aeruginosa K799/WT by broth microdilution assay; type: functional
Pseudomonas aeruginosa [12] = assay: Antibacterial activity against Pseudomonas aeruginosa 8S/H by broth microdilution assay; type: functional
Escherichia coli [13] = assay: Antibacterial activity against Escherichia coli ATCC 25922 by broth microdilution assay; type: functional

**Q.** Which MIC (Pseudomonas aeruginosa [1]) does the source give for CC(C)C[C@H](N)C(=O)NCCCC[C@H](NC(=O)[C@@H](N)CC(C)C)C(=O)N[C@@H](C)C(=O)NCCCC[C@H](NC(=O)[C@H](C)NC(=O)[C@H](CCCCNC(=O)[C@@H](N)CC(C)C)NC(=O)[C@@H](N)CC(C)C)C(=O)N[C@@H](Cc1ccccc1)C(=O)NCCCC[C@H](NC(=O)[C@H](Cc1ccccc1)NC(=O)[C@H](CCCCNC(=O)[C@H](C)NC(=O)[C@H](CCCCNC(=O)[C@@H](N)CC(C)C)NC(=O)[C@@H](N)CC(C)C)NC(=O)[C@H](C)NC(=O)[C@H](CCCCNC(=O)[C@@H](N)CC(C)C)NC(=O)[C@@H](N)CC(C)C)C(=O)N[C@@H](CCCCN)C(N)=O (I: H-LK(Leu)AK([Ala-LeuLys(Leu)])FKK-NH2 / II: H-LK(Leu)AK([Ala-LeuLys(Leu)])F; amide I:6-II:C) here?
**A.** The MIC was greater than 100 µg/mL.

**Q.** What about the MHC [2] of the same compound?
**A.** The MHC was greater than 2000 µg/mL.

**Q.** And the MIC (Bacillus subtilis)?
**A.** Its MIC is 67 µg/mL (≈ 26.5 µM).

**Q.** What about the MIC (Escherichia coli [3]) of the same compound?
**A.** The MIC was greater than 100 µg/mL.

**Q.** With CC(=O)N[C@@H](CC(C)C)C(=O)NCCCC[C@H](NC(=O)[C@H](CC(C)C)NC(C)=O)C(=O)N[C@@H](Cc1ccccc1)C(=O)NCCCC[C@H](NC(=O)[C@H](Cc1ccccc1)NC(=O)[C@H](CCCCNC(=O)[C@H](CC(C)C)NC(C)=O)NC(=O)[C@H](CC(C)C)NC(C)=O)C(=O)N1CCC[C@H]1C(=O)NCCCC[C@H](NC(=O)[C@@H]1CCCN1C(=O)[C@H](CCCCNC(=O)[C@H](Cc1ccccc1)NC(=O)[C@H](CCCCNC(=O)[C@H](CC(C)C)NC(C)=O)NC(=O)[C@H](CC(C)C)NC(C)=O)NC(=O)[C@H](Cc1ccccc1)NC(=O)[C@H](CCCCNC(=O)[C@H](CC(C)C)NC(C)=O)NC(=O)[C@H](CC(C)C)NC(C)=O)C(=O)N[C@@H](CCCCN)C(N)=O (I: Ac-LK([Leu-Ac])FK([Phe-X3])PKK-NH2 / II: Ac-LK([Leu-Ac])FK([Phe-X3])P; amide I:6-II:C) as the compound, how does the MIC (Staphylococcus aureus [4]) read?
**A.** Its MIC is greater than 32 µg/mL.

**Q.** What about the MIC (Enterococcus faecalis [5]) of the same compound?
**A.** The MIC was greater than 32 µg/mL.

**Q.** And the MIC (Pseudomonas aeruginosa [6])?
**A.** The MIC was greater than 32 µg/mL.

**Q.** What about the MIC (Staphylococcus aureus [7]) of the same compound?
**A.** Its MIC is greater than 32 µg/mL.

**Q.** What about the MIC (Enterococcus faecalis [8]) of the same compound?
**A.** The MIC was greater than 32 µg/mL.

**Q.** What about the MIC (Pseudomonas aeruginosa [9]) of the same compound?
**A.** The MIC was greater than 32 µg/mL.

**Q.** And the MIC (Pseudomonas aeruginosa [10])?
**A.** Its MIC is greater than 32 µg/mL.

**Q.** And the MIC (Pseudomonas aeruginosa [11])?
**A.** The MIC was greater than 32 µg/mL.

**Q.** And the MIC (Pseudomonas aeruginosa [12])?
**A.** Its MIC is greater than 32 µg/mL.

**Q.** And the MIC (Escherichia coli [13])?
**A.** The MIC was greater than 32 µg/mL.

**Q.** Which results are given for CC(C)C[C@@H](N)C(=O)NCCCC[C@H](NC(=O)[C@H](N)CC(C)C)C(=O)N[C@H](Cc1ccccc1)C(=O)NCCCC[C@H](NC(=O)[C@@H](Cc1ccccc1)NC(=O)[C@H](CCCCNC(=O)[C@H](N)CC(C)C)NC(=O)[C@H](N)CC(C)C)C(=O)N1CCC[C@@H]1C(=O)NCCCC[C@H](NC(=O)[C@H]1CCCN1C(=O)[C@H](CCCCNC(=O)[C@@H](Cc1ccccc1)NC(=O)[C@H](CCCCNC(=O)[C@H](N)CC(C)C)NC(=O)[C@H](N)CC(C)C)NC(=O)[C@@H](Cc1ccccc1)NC(=O)[C@H](CCCCNC(=O)[C@H](N)CC(C)C)NC(=O)[C@H](N)CC(C)C)C(=O)N[C@H](CCCCN)C(N)=O?
**A.** MIC (Pseudomonas aeruginosa [1]): 60 µg/mL (≈ 22 µM); MHC [2]: > 10000 µg/mL; MIC (Bacillus subtilis): 4.4 µg/mL (≈ 1.61 µM); MIC (Escherichia coli [3]): 11 µg/mL (≈ 4.03 µM)

**Q.** For CC(C)C[C@H](NC(=O)[C@H](CCCCNC(=O)[C@@H](N)CC(C)C)NC(=O)[C@@H](N)CC(C)C)C(=O)NCCCC[C@H](NC(=O)[C@H](CC(C)C)NC(=O)[C@H](CCCCNC(=O)[C@@H](N)CC(C)C)NC(=O)[C@@H](N)CC(C)C)C(=O)N[C@@H](C)C(=O)NCCCC[C@H](NC(=O)[C@H](C)NC(=O)[C@H](CCCCNC(=O)[C@H](CC(C)C)NC(=O)[C@H](CCCCNC(=O)[C@@H](N)CC(C)C)NC(=O)[C@@H](N)CC(C)C)NC(=O)[C@H](CC(C)C)NC(=O)[C@H](CCCCNC(=O)[C@@H](N)CC(C)C)NC(=O)[C@@H](N)CC(C)C)C(=O)N[C@@H](CCCCN)C(N)=O (I: H-LK(Leu)LK([Leu-LeuLys(Leu)])AKK-NH2 / II: H-LK(Leu)LK([Leu-LeuLys(Leu)])A; amide I:6-II:C), which MIC (Pseudomonas aeruginosa [1]) is on record?
**A.** The MIC was 67 µg/mL (≈ 26.4 µM).

**Q.** And the MHC [2]?
**A.** Its MHC is greater than 2000 µg/mL.

**Q.** And the MIC (Bacillus subtilis)?
**A.** Its MIC is 4.5 µg/mL (≈ 1.77 µM).

**Q.** And the MIC (Escherichia coli [3])?
**A.** Its MIC is greater than 100 µg/mL.

**Q.** What does the source list for CC(C)C[C@H](NC(=O)[C@H](CCCCNC(=O)[C@@H](N)CC(C)C)NC(=O)[C@@H](N)CC(C)C)C(=O)NCCCC[C@H](NC(=O)[C@H](CC(C)C)NC(=O)[C@H](CCCCNC(=O)[C@@H](N)CC(C)C)NC(=O)[C@@H](N)CC(C)C)C(=O)N[C@@H](Cc1ccccc1)C(=O)NCCCC[C@H](NC(=O)[C@H](Cc1ccccc1)NC(=O)[C@H](CCCCNC(=O)[C@H](CC(C)C)NC(=O)[C@H](CCCCNC(=O)[C@@H](N)CC(C)C)NC(=O)[C@@H](N)CC(C)C)NC(=O)[C@H](CC(C)C)NC(=O)[C@H](CCCCNC(=O)[C@@H](N)CC(C)C)NC(=O)[C@@H](N)CC(C)C)C(=O)N[C@@H](C)C(N)=O (I: H-LK(Leu)LK([Leu-LeuLys(Leu)])FKA-NH2 / II: H-LK(Leu)LK([Leu-LeuLys(Leu)])F; amide I:6-II:C)?
**A.** MIC (Pseudomonas aeruginosa [1]): ≥ 100 µg/mL; MHC [2]: 31 µg/mL; MIC (Bacillus subtilis): 2 µg/mL (≈ 0.758 µM); MIC (Escherichia coli [3]): 15 µg/mL (≈ 5.69 µM)
